Tested on: uPA mRNA
Experiment: Northern blot of uPA mRNA in MCF-7 cells treated with demethylating agent (Example 6)
Type: cell-based, human
Conditions: 25 uM, ten days, vs vehicle alone
Procedure: Human breast cancer cells MCF-7 were maintained in culture and at 65% confluent cells were treated with vehicle alone (MCF-7) or 25 uM of the demethylating agent 5 azc (MCF-7+5azc) for ten days. MDA-231 cells were used as positive control (MDA-231) for uPA expression. At the end of this period 20 μg of cellular RNA from each group were electophoresed on a 1.1% agarose/formaldehyde gel and […] a ^32p labeled 18 S RNA probe. All blots (FIG. 1A) were quantified by densitometric scanning (FIG. 1B). Significant difference from control cells is represented by an asterisk (p<0.05).

For `Nc1ncn([C@@H]2O[C@H](CO)[C@@H](O)[C@H]2O)c(=O)n1` [5-azc], the “uPA mRNA (Northern blot, densitometric scanning)” value was “marked induction”.
